Experimental data: patent US12668600B2 (Kumquat Biosciences Inc., priority 2023, dated 2026)

Legend:
Type in all cases: biochemical
KRAS WT = molecular target: T1, KRAS WT (Homo sapiens, UniProt P01116); assay: HTRF KRAS-SOS1 interaction assay, wildtype KRAS; conditions: binned ≤2 μM / >2 μM, read-out: Inhibition of KRAS WT (IC50)
T1 construct: made in house; host or cells: E. coli, e.g. BL21 (DE3)
Excerpt: (§1) This assay can be also used to assess a selective inhibition or reduction of signaling output of a mutant Ras protein relative to a wildtype, or relative to a different mutant Ras protein. For example, the equilibrium interaction of wildtype KRAS or K-Ras mutant (e.g., wildtype or a mutant thereof) with SOS1 (e.g., hSOS1) can be assessed as a proxy or an indication for the ability of a subject compound to bind and inhibit Ras protein. The HTRF assay detects from (i) a fluorescence resonance energy transfer (FRET) donor (e.g., antiGST-Europium) that is bound to GST-tagged K-Ras mutant to (ii) a FRET acceptor (e.g., anti-6His-XL665) bound to a His-tagged hSOS1.
(§2) The assay buffer can contain ˜5 mM HEPES pH 7.4, ˜150 mM NaCl, ˜1 mM DTT, 0.05% BSA and 0.0025% (v/v) Igepal. A Ras working solution is prepared in an assay buffer containing typically a suitable amount of the protein construct (e.g., GST-tagged K-Ras mutant) and the FRET donor (e.g., antiGST-Eu (K) from Cisbio, France). A SOS1 working solution is prepared in an assay buffer containing suitable amount of the protein construct (e.g., His-hSOS1) and the FRET acceptor (e.g., anti-6His-XL665 from Cisbio, France). A suitable amount of the protein construct will depend on the range of activity or range of IC50 values being detected or under investigation. For detecting an IC50 within a range of 500 nM, the protein constructs of the same range of molarity can be utilized.
(§3) A fixed volume of DMSO with or without test compound is transferred into a 384-well plate. Ras working solution is added to all wells of the test plate. SOS1 working solution is added to all wells except for those that are subsequently filled with inhibitor control solution. Upon incubation for about 10 minutes or longer, the fluorescence is measured with a M1000Pro plate reader (Tecan) using HTRF detection (excitation 337 nm, emission 1:620 nm, emission 2:665 nm). Compounds are tested in duplicate at different concentrations (for example, 10 μM, 2.5 μM, 0.63 μM, 0.16 μM, 0.04 μM, 0.01 μM test compound). The ratiometric data (i.e., emission 2 divided by emission 1) is used to calculate IC50 values against Ras using GraphPad Prism (GraphPad software). Signaling output measured in terms of IC50 values can be obtained and a ratio of IC50 against one mutant relative to another mutant can be calculated.

KRAS G12D = molecular target: T2, KRAS G12D (Homo sapiens, UniProt P01116, G12D); assay: HTRF KRAS-SOS1 interaction assay, KRAS G12D; conditions: binned ≤2 μM / >2 μM, read-out: Inhibition of KRAS G12D (IC50)
T2 construct: made in house; host or cells: E. coli, e.g. BL21 (DE3)
Excerpt: as §1, §2, §3

KRAS G12V = molecular target: T3, KRAS G12V (Homo sapiens, UniProt P01116, G12V); assay: HTRF KRAS-SOS1 interaction assay, KRAS G12V; conditions: binned ≤2 μM / >2 μM, read-out: Inhibition of KRAS G12V (IC50)
T3 construct: made in house; host or cells: E. coli, e.g. BL21 (DE3)
Excerpt: as §1, §2, §3

KRAS G12S = molecular target: T4, KRAS G12S (Homo sapiens, UniProt P01116, G12S); assay: HTRF KRAS-SOS1 interaction assay, KRAS G12S; conditions: binned ≤2 μM / >2 μM, read-out: Inhibition of KRAS G12S (IC50)
T4 construct: made in house; host or cells: E. coli, e.g. BL21 (DE3)
Excerpt: as §1, §2, §3

T2 sequence (P01116 1-188 isoform P01116-2 G12D): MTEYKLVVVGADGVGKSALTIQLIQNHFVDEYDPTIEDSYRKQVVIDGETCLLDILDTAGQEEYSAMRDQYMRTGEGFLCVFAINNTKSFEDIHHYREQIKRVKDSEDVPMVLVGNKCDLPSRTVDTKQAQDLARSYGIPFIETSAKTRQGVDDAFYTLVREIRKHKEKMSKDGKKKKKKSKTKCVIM
T1 sequence (P01116 1-188 isoform P01116-2): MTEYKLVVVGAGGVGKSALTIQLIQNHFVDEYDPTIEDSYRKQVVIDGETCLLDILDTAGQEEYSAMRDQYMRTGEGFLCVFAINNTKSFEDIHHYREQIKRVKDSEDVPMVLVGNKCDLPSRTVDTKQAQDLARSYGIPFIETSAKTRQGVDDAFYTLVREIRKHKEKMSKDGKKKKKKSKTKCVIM
T3 sequence (P01116 1-188 isoform P01116-2 G12V): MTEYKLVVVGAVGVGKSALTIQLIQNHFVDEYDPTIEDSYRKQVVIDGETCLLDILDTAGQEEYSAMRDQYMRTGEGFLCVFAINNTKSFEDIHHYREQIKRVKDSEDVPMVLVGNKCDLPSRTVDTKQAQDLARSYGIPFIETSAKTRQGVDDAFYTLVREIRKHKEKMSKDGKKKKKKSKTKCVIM
T4 sequence (P01116 1-188 isoform P01116-2 G12S): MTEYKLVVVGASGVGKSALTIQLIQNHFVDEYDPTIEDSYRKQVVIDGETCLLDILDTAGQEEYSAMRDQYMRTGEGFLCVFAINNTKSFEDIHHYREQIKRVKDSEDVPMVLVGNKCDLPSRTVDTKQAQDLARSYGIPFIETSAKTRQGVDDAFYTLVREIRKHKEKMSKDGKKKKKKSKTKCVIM

IC50 (KRAS WT) [µM]	IC50 (KRAS G12D) [µM]	IC50 (KRAS G12V) [µM]	IC50 (KRAS G12S) [µM]	Compound
≤ 2	≤ 2	≤ 2	≤ 2	N#Cc1c(N)sc2c(F)ccc(-c3c(C(F)(F)F)c4c5c(nc(OC[C@@]67CCCN6C[C@@]6(CC6(F)F)C7)nc5c3F)N([C@H](CCC(F)(F)F)c3cccnc3N)CCO4)c12 [Compound 883, 2-amino-4-(4-((R)-1-(2-aminopyridin-3-yl)-4,4,4-trifluorobutyl)-2-(((1S,7a′S)-2,2-difluorodihydro-1′H,3′H-spiro[cyclopropane-1,2′-pyrrolizin]-7a′(5′H)-yl)methoxy)-10-fluoro-8-(trifluoromethyl)-5,6-dihydro-4H-[1,4]oxazepino[5,6,7-de]quinazolin-9-yl)-7-fluorobenzo[b]thiophene-3-carbonitrile]
≤ 2	≤ 2	≤ 2	≤ 2	N#Cc1c(N)sc2c(F)ccc(-c3c(Cl)c4c5c(nc(OC[C@@]67CCCN6C[C@H](F)C7)nc5c3F)N(C(/C=C\F)c3cccnc3N)CCO4)c12 (single isomer, unassigned) [Compound 755]
> 2	> 2	> 2	> 2	C[C@H](c1cccnc1N)N1CCOc2c(Cl)c(-c3ccc(F)c4sc(N)c(C#N)c34)c(F)c3nc(OCC45CCCC4CCC5)nc1c23 (single isomer, unassigned) [Compound 674]
≤ 2	≤ 2	≤ 2	≤ 2	CN(C)C(=O)C[C@H](c1cccnc1N)N1CCOc2c(C(F)(F)F)c(-c3ccc(F)c4sc(N)c(C#N)c34)c(F)c3nc(OC[C@@]45CCCN4C[C@H](F)C5)nc1c23 [Compound 810, (3R)-3-(9-(2-amino-3-cyano-7-fluorobenzo[b]thiophen-4-yl)-10-fluoro-2-(((2R,7aS)-2-fluorotetrahydro-1H-pyrrolizin-7a(5H)-yl)methoxy)-8-(trifluoromethyl)-5,6-dihydro-4H-[1,4]oxazepino[5,6,7-de]quinazolin-4-yl)-3-(2-aminopyridin-3-yl)-N,N-dimethylpropanamide]
> 2	> 2	> 2	> 2	N#Cc1c(N)sc2c(F)ccc(-c3c(C(F)(F)F)c4c5c(nc(OC[C@@]67CCCN6C[C@H](F)C7)nc5c3F)N([C@H](CC3CCC3)c3cccnc3N)CCO4)c12 (single isomer, unassigned) [Compound 902]
≤ 2	≤ 2	≤ 2	≤ 2	N#Cc1c(N)sc2c(F)ccc(-c3c(Cl)c4c5c(nc(OC[C@@]67CCCN6C[C@H](F)C7)nc5c3F)N([C@H](/C=C/C3CC3)c3cccnc3N)CCO4)c12 [Compound 676, 2-amino-4-(4-((R,E)-1-(2-aminopyridin-3-yl)-3-cyclopropylallyl)-8-chloro-10-fluoro-2-(((2R,7aS)-2-fluorotetrahydro-1H-pyrrolizin-7a(5H)-yl)methoxy)-5,6-dihydro-4H-[1,4]oxazepino[5,6,7-de]quinazolin-9-yl)-7-fluorobenzo[b]thiophene-3-carbonitrile]
≤ 2	≤ 2	≤ 2	≤ 2	Cc1c(F)c(N)cc(-c2nc3c4c(nc(O[C@@H](C)C5CCCN5C)nc4c2F)N([C@H](C)c2cccnc2N)CCO3)c1C(F)(F)F (single isomer, unassigned) [Compound 748]
≤ 2	≤ 2	≤ 2	≤ 2	C#Cc1c(F)ccc2cc(O)cc(-c3nc4c5c(nc(O[C@@H](C)[C@@H]6CCCN6C)nc5c3F)N([C@H](C)c3cccnc3N)CCO4)c12 (single isomer, unassigned) [Compound 779]
≤ 2	≤ 2	≤ 2	≤ 2	C[C@H](c1cccnc1N)N1CCOc2c(C3CC3)c(-c3ccc(F)c4sc(N)c(C#N)c34)c(F)c3nc(OC[C@@]45CCCN4C[C@H](F)C5)nc1c23 (single isomer, unassigned) [Compound 727]
